Consider six compounds from patent publication US4364953A, “2-0- and 5-0-Substituted 1.4;3.6-dianhydrohexitol mononitrates and pharmaceutical composition” (Firma Willmar Schwabe, priority 1980, dated 1982).

Structures are written as SMILES. Like-named read-outs stand apart in the source and are kept apart here.

Data set [1] deals with isolated guinea pig hearts. As to the kind of experiment: Experiments on the Langendorff heart (isolated guinea pig hearts). As to conditions: Cavia porcellus, 25 μg./ml. test substance in 50 ml. tyrode solution, average of 3-6 hearts.
Data set [2] relates to isolated rat aorta preparations.
Text: Here, too, ISDN and ISMN were chosen as comparison compounds.
A further data set deals with female NMRI-albino mice. As to the kind of experiment: Acute toxicity, intravenous, female NMRI-albino mice. To be noted: for Frequency of death with an intravenous dose of 100 mg/kg: 100 mg/kg i.v. as hydrochloride in physiological saline; for Frequency of death with an intravenous dose of 100 mg/kg / Frequency of death with an intravenous dose of 200 mg/kg: death within 24 hours, dead/treated; for Frequency of death with an intravenous dose of 200 mg/kg: 200 mg/kg i.v. as hydrochloride in physiological saline.

A further data set can be described thus: in vivo. As to conditions: mouse, iv, Evaluated LD50 -range, mice, as hydrochloride.
Another data set relates to narcotised guinea pigs. As to the kind of experiment: Blood pressure experiments on the narcotised guinea pig (i.v.). To be noted: for blood pressure afterwards: after administration; for blood pressure previously: before administration (baseline); for blood pressure-lowering effectiveness compared with ISMN and ISDN: in words, guinea pig i.v., Table III.
The subject of the next data set is mongrel cats. In words: Heart-circulation effectiveness in narcotised mongrel cats, intraduodenal administration. As to conditions: 5 mg/kg intraduodenal, cat.
[3] abbreviates: read-out: flowthrough, percentage change in comparison with the initial value.
Where [4] appears, read: read-out: frequency, percentage change in comparison with the initial value.
Where [5] appears, read: read-out: inotropism, percentage change in comparison with the initial value.
Setting [6] is: read-out: noradrenaline spasm, […].
Setting [7] is: read-out: potassium chloride spasm, […].
The mark [8] stands for this setting: 0 min (baseline), average ± standard error, 6 animals.

Experimental for female NMRI-albino mice: (§1) The compounds were injected to at least 3 animals per dose. If no animal had yet been died following to the highest dose which was administered, no more doses of substances were tested. In case of doubt, the examination was repeated with at least 3 more animals applying the same dose.
(§2) The rate of death within 24 hours after administration was observed.
Experimental for in vivo: as §1, §2
Experimental for mongrel cats: The animals were narcotised with a mixture of chloralose-urethane (1.2 g./kg. urethane+40 mg./kg chloralose administered i.p.). They breathed spontaneously through a tracheal canula. The A. carotis was used in order to place a catheter tip manometer in the left heart chamber. The V. jugularis served for injection purposes. Via the A. femoralis, a catheter was inserted into the Aorta descendans and attached to a pressure recorder (Statham P 23 Db). The heart frequency was recorded with a pulse frequency measurer (firm Hugo Sachs Elektronik) from the left ventricular pressure signal. A duodenal loop was exposed by laparotomy. The substances to be tested were injected directly into the lumen.

For the compound `CS(=O)(=O)O[C@@H]1CO[C@H]2[C@@H]1OC[C@@H]2O[N+](=O)[O-]` [Example 4, 1.4;3.6-Dianhydro-D-glucitol 2-nitrate 5-methanesulphonate], the figures for the activation at 25 µg/mL in data set [1] (setting [3]), in data set [1] (setting [4]) and in data set [1] (setting [5]) were 44.3%, 0% and 0%, respectively. For the same compound, the IC50 in data set [2] (setting [6]) stood at 2.2 µM; in data set [2] (setting [7]), 2.8 µM.
As usually defined, the LD50 is the dose expected to kill half of the subjects tested. Read a low LD50 as greater toxicity. `O=C(O[C@@H]1CO[C@H]2[C@@H]1OC[C@H]2O[N+](=O)[O-])c1cccnc1` [Example 8, 1.4;3.6-Dianhydro-D-mannitol 2-nitrate 5-nicotinate]: in the data set on female NMRI-albino mice, the “Frequency of death with an intravenous dose of 100 mg/kg” value (“Frequency of death … of 100 mg/kg” below) is given as 0/6 and the “Frequency of death with an intravenous dose of 200 mg/kg” value (shortened to “Frequency of death … of 200 mg/kg”) was 3/3. Further, the “Evaluated LD50 -range” value in the data set with female NMRI-albino mice (i.v., mice, as hydrochloride, 24 hours, 1440 min) was > 100 mg/kg. Also, the LD50 at 24 h in the data set “in vivo” was < 200 mg/kg.
`O=[N+]([O-])O[C@H]1CO[C@H]2[C@@H]1OC[C@@H]2Oc1ccc(Cl)cc1` [Example 1c, 5-O-(4-Chlorophenyl)-1.4;3.6-dianhydro-L-iditol 2-nitrate]: the “blood pressure Δ” value in the data set on narcotised guinea pigs (0.25 mg/kg i.v.) is recorded as -1.60 mm.Hg; in the data set on narcotised guinea pigs (1.00 mg/kg i.v.), -15.00 mm.Hg; in the data set on narcotised guinea pigs (2.50 mg/kg i.v.), -23.00 mm.Hg. Further, the blood pressure afterwards was 59.70 ± 2.40 mm.Hg with narcotised guinea pigs (0.25 mg/kg i.v.), 46.90 ± 1.20 mm.Hg with narcotised guinea pigs (1.00 mg/kg i.v.) and 37.60 ± 1.00 mm.Hg in the data set on narcotised guinea pigs (2.50 mg/kg i.v.). Also, the blood pressure previously is 61.30 ± 2.60 mm.Hg in the data set on narcotised guinea pigs (0.25 mg/kg i.v.), 61.90 ± 1.90 mm.Hg in the data set with narcotised guinea pigs (1.00 mg/kg i.v.) and 60.60 ± 1.80 mm.Hg with narcotised guinea pigs (2.50 mg/kg i.v.). Further, the figures for the activation at 25 µg/mL in data set [1] (setting [3]), in data set [1] (setting [4]) and in data set [1] (setting [5]) were 19.8%, 2.89% and 12.2%, respectively. The IC50 stood at 0.14 µM in data set [2] (setting [6]) and 3.18 µM in data set [2] (setting [7]).
With `O=C(O[C@H]1CO[C@H]2[C@@H]1OC[C@@H]2O[N+](=O)[O-])c1cccnc1` [Example 2b, 1.4;3.6-Dianhydro-L-iditol 2-nitrate 5-nicotinate], the “blood pressure Δ” value is recorded as -11.40 mm.Hg in the data set with narcotised guinea pigs (0.25 mg/kg i.v.), -15.60 mm.Hg in the data set on narcotised guinea pigs (1.00 mg/kg i.v.) and -20.70 mm.Hg in the data set on narcotised guinea pigs (2.50 mg/kg i.v.). Also, the blood pressure afterwards is recorded as 47.30 ± 2.60 mm.Hg with narcotised guinea pigs (0.25 mg/kg i.v.), 42.70 ± 1.80 mm.Hg in the data set with narcotised guinea pigs (1.00 mg/kg i.v.) and 33.00 ± 1.00 mm.Hg in the data set with narcotised guinea pigs (2.50 mg/kg i.v.). Further, the blood pressure previously came out at 58.70 ± 4.30 mm.Hg in the data set with narcotised guinea pigs (0.25 mg/kg i.v.), 58.30 ± 2.00 mm.Hg with narcotised guinea pigs (1.00 mg/kg i.v.) and 53.70 ± 3.30 mm.Hg in the data set with narcotised guinea pigs (2.50 mg/kg i.v.). For the same compound, the “blood pressure-lowering effectiveness compared with ISMN and ISDN” value in the data set with narcotised guinea pigs was “actions similar to those of ISDN”. Moreover, in the data set on female NMRI-albino mice, the “Frequency of death … of 100 mg/kg” value is listed as 0/6. In the data set with female NMRI-albino mice, the “Frequency of death … of 200 mg/kg” value is recorded as 2/6. For the same compound, in “in vivo”, the LD50 at 24 h was ≥ 200 mg/kg. In addition, the figures for the activation at 25 µg/mL in data set [1] (setting [3]), in data set [1] (setting [4]) and in data set [1] (setting [5]) were 35.4%, 0% and 3.36%, respectively. Also, the IC50 was 0.28 µM in data set [2] (setting [6]) and 3.1 µM in data set [2] (setting [7]).
On to `O=C(O[C@@H]1CO[C@H]2[C@@H]1OC[C@@H]2O[N+](=O)[O-])c1cccnc1` [Example 5b, 1.4;3.6-Dianhydro-D-glucitol 2-nitrate 5-nicotinate], for which the “blood pressure Δ” value in the data set on narcotised guinea pigs (0.25 mg/kg i.v.) was -7.70 mm.Hg; with narcotised guinea pigs (1.00 mg/kg i.v.) it was -18.00 mm.Hg; in the data set with narcotised guinea pigs (2.50 mg/kg i.v.), -28.00 mm.Hg; in the data set on mongrel cats (10 min versus 0 min), -25.2 mm.Hg; in the data set with mongrel cats (30 min versus 0 min), -28.7 mm.Hg; with mongrel cats (60 min versus 0 min) it was -29.7 mm.Hg. Also, the “blood pressure Δ” value with mongrel cats (120 min versus 0 min) is listed as -22.2 mm.Hg. The blood pressure afterwards is given as 55.00 ± 1.00 mm.Hg with narcotised guinea pigs (0.25 mg/kg i.v.), 44.30 ± 0.90 mm.Hg in the data set with narcotised guinea pigs (1.00 mg/kg i.v.) and 33.30 ± 0.70 mm.Hg in the data set with narcotised guinea pigs (2.50 mg/kg i.v.). Besides, the blood pressure previously with narcotised guinea pigs (0.25 mg/kg i.v.) was determined as 62.70 ± 3.00 mm.Hg; in the data set with narcotised guinea pigs (1.00 mg/kg i.v.), 62.30 ± 4.10 mm.Hg; in the data set on narcotised guinea pigs (2.50 mg/kg i.v.), 61.30 ± 4.90 mm.Hg. In the data set with narcotised guinea pigs, the “blood pressure-lowering effectiveness compared with ISMN and ISDN” value was “actions similar to those of ISDN”. Further, the “Frequency of death … of 100 mg/kg” value in the data set with female NMRI-albino mice is on record as 0/6. In addition, the LD50 at 24 h in “in vivo” was > 100 mg/kg. In addition, the activation at 25 µg/mL is 23.6% in data set [1] (setting [3]), -9.13% in data set [1] (setting [4]) and 15.8% in data set [1] (setting [5]). Further, the blood pressure with mongrel cats (setting [8]) was 123.5 ± 7.3 mm.Hg; in the data set on mongrel cats (10 min after admin.), 98.3 ± 6.2 mm.Hg; with mongrel cats (30 min after admin.), 94.8 ± 7.2 mm.Hg; in the data set on mongrel cats (60 min after admin.), 93.8 ± 7.8 mm.Hg; with mongrel cats (120 min after admin.), 101.3 ± 11.2 mm.Hg. Moreover, the “dp/dt (inotropism)” value stood at 10625 ± 2083 mm.sec with mongrel cats (setting [8]); 8050 ± 1204 mm.sec in the data set with mongrel cats (10 min after admin.); 7975 ± 1216 mm.sec with mongrel cats (30 min after admin.); 8275 ± 309 mm.sec in the data set with mongrel cats (60 min after admin.); 7500 ± 1022 mm.sec in the data set on mongrel cats (120 min after admin.). Further, the heart frequency in the data set on mongrel cats (setting [8]) was found to be 211.5 ± 19.3 min⁻¹; with mongrel cats (10 min after admin.), 209.5 ± 19.2 min⁻¹; in the data set with mongrel cats (30 min after admin.), 212.5 ± 21.6 min⁻¹; with mongrel cats (60 min after admin.), 225.0 ± 16.2 min⁻¹; in the data set on mongrel cats (120 min after admin.), 228.0 ± 15.6 min⁻¹. For the same compound, the “dp/dt Δ” value is -2575 mm.sec with mongrel cats (10 min versus 0 min), -2650 mm.sec in the data set on mongrel cats (30 min versus 0 min), -2350 mm.sec in the data set with mongrel cats (60 min versus 0 min) and -3125 mm.sec in the data set with mongrel cats (120 min versus 0 min). Further, the IC50 in data set [2] (setting [6]) was determined as 6.2 µM; in data set [2] (setting [7]), 22.5 µM.
For the compound `O=C(O[C@H]1CO[C@H]2[C@@H]1OC[C@H]2O[N+](=O)[O-])c1cccnc1` [Example 7b, 1.4;3.6-Dianhydro-D-glucitol 2-nicotinate 5-nitrate], in the data set on female NMRI-albino mice, the “Frequency of death … of 200 mg/kg” value is 0/6. For the same compound, the LD50 at 24 h in “in vivo” was > 200 mg/kg. Further, the IC50 was 20 µM in data set [2] (setting [6]) and 44 µM in data set [2] (setting [7]).
